According to patent US9446092B2, “Use of a neurofilament peptide for the treatment of glioma” (UNIVERSITE D'ANGERS, priority 2009, dated 2016):
One block for each compound: values may come before it. Ends that are not written are not given here.

How the values were obtained:
[1] = Non tumor-bearing (control) rats, intracerebral peptide injection; format: in vivo, rat
F98 glioma cells [2] = test: MTS cytotoxicity assay; format: cell-based, rat; details: 100 μM, 72 hours
Method: (§1) The effects of peptides on the proliferation of glioma cells or astrocytes were evaluated by the MTS cytotoxicity assay and by counting directly the number of cells. For the MTS assay (Promega), 500 cells were seeded in 96-well plates, incubated at 37° C. for 24 hours, and treated by the peptide at the indicated concentrations for 24, 48 and 72 hours, or with vehicle (PBS or water). Media and peptides were replaced daily. Peptides were prepared in DMEM, and paclitaxel was dissolved in DMSO at a concentration of 2 mM and further diluted into DMEM. Viability was also determined by trypan blue staining. For manual counts, cells were treated with 0.25% trypsin/0.53 mM EDTA, centrifuged, and counted with a hemacytometer following addition of trypan blue dye. At each time, 3 to 6 wells per treatment were counted.

9L glioma cells [3] = test: MTS cytotoxicity assay; format: cell-based, rat; details: 100 μM, 72 hours
Method: as §1

[4] = test system: primary human glioblastoma cells; test: MTS assay on primary glioblastoma cells isolated after surgery; format: cell-based; details: 40 nM, 72 h
Method: Primary human glioblastoma cells obtained from tissue samples extracted in human brains during surgery are put in culture in a DMEM medium containing glucose, L-glutamine, 10% fetal calf serum, […] (Sigma). Cells were plated (20 000 cells per cm^2) in MW96 and let grow at 37° C. in a humidified incubator gassed with 5% CO2. The peptides and/or drugs are added 48 hours after their plating.
as §1

rat primary astrocytes = test: Immunocytochemistry: peptide penetration and microtubule network; format: cell-based; details: 10 μM, 6 h
Method: Rat primary astrocytes were obtained from cultures of cerebral cortex as originally described (McCarthy and de Vellis, 1980). Briefly, the cerebral cortex was dissected from newborn rats and cells were recovered after tissue homogenization, trypsination, and centrifugation. They were grown during 3 weeks in DMEM media with glucose and L-glutamine (Lonza France), containing 10% fetal calf serum (Lonza France), 1% penicillin/streptomycin (Sigma) in humidified incubator gassed with 5% CO2 (37° C.).
Cells were plated on coverslips and cultured in media containing biotinylated peptides (10 μM) for 6 hours. Following PBS washing, the cells were fixed for 10 min in 4% paraformaldehyde, and washed 3 times in PBS. They were then incubated for 10 min in a 0.5% triton X-100 permeabilization solution, washed 3 times in PBS before incubation in a blocking solution (5% BSA) for 15 min. […]
(§2) Observations were carried out with an Olympus confocal microscope (BX50) using Fluoview.3.1. […] Images were acquired with a CoolSNAP-HQ2 camera and analyzed with Metamorph 7.1.7.0. software. Cells that are positive for peptide staining and cells with destroyed microtubule network were counted. Experiments on each cell type were repeated at least three times, and minimums of 200 cells were analyzed for each experiment.

9L cells [5] = test: BrdU incorporation (cell proliferation); format: cell-based, rat; details: 100 μM, 72 hours
Method: (§3) To assess cell proliferation, 5-bromodeoxyuridine (BrdU) immunohistochemistry was used. Cells were platted on coverslips and cultured in media containing biotinylated peptides (100 μM) for 72 hours, and incubated during 4 hours in the presence of 1 mg/mL BrdU (Sigma). Cells were then washed in PBS, fixed in 3% paraformaldehyde for 10 min and permeabilized with 1% Triton X-100 in PBS for 10 min. Cells were acidified to denature the DNA (2 N HCl, 10 min), neutralized (0.1 M sodium borate, 10 min) and then rinsed extensively in PBS. After blocking with 10% NGS (10 min) the cells were labeled with monoclonal anti-BrdU antibody (1/400) followed by Alexa 568 nm anti-mouse antibody (1/200). Nuclei were stained with 4′6-diaminido-2-phenylindole (DAPI; Sigma). […] Images were acquired with a CoolSNAP HQ2 camera and analyzed with Metamorph 7.1.7.0. software. Minimums of 200 cells were scored for BrdU incorporation, and experiments were repeated at least three times.

F98 cells [6] = test: BrdU incorporation (cell proliferation); format: cell-based, rat; details: 100 μM, 72 hours
Method: as §3

9L cells [7] = test: Cell death analysis by flow cytometry (Annexin V / PI); format: cell-based, rat; details: 100 μM, 72 hours, Annexin V/PI FACS
Method: (§4) To detect possible apoptotic processes, cells were seeded in 35 mm dishes and cultured in media containing biotinylated peptides (100 μM) or PBS alone for 72 hours. Paclitaxel (40 nM) was used as a positive control to induce apoptosis (Terzis et al., 1997). Cells were then trypsinized, washed in cold PBS, and stained with Annexin V-FITC (BD Pharmingen) in Annexin buffer for 15 min at room temperature. Finally, they were counterstained with 50 μg/mL propidium iodide (Sigma) and analyzed with a FACSCalibur flow cytometer. Experiment on each cell type was repeated three times. 20,000 events per sample were analyzed in each experiment.

primary astrocytes = test: as above; format: cell-based, rat; details: 100 μM, 72 hours, Annexin V/PI FACS
Method: as §4

F98 cells [8] = test: as above; format: cell-based, rat; details: 100 μM, 72 hours, Annexin V/PI FACS
Method: as §4

rat neurons = test: Immunocytochemistry: peptide penetration and microtubule network; format: cell-based; details: 10 μM, 6 h
Method: Hippocampal neuronal cultures were prepared from newborn rat brains according to Ray et al. 1993 and Kaech and Banker 2006. Briefly, the hippocampi of animals younger than 2 days were recovered, minced and digested in 0.01% trypsin for one hour at 37° C. Dissociated cells were plated on coverslips precoated with 5 μg/ml poly-1-lysine and 7 μg/ml collagen at densities of 2×10^5/ml and incubated at 37° C. with a 5% CO2 atmosphere. Twenty-four hours later, the plating solution was replaced by B-27 neurobasal medium, and the second day cytosine arabinoside (20 μM) was added to eliminate non-neural cells. Experiments were performed 7 days after plating.
Cells were plated on coverslips and cultured in media containing biotinylated peptides (10 μM) for 6 hours. Following PBS washing, the cells were fixed for 10 min in 4% paraformaldehyde, and washed 3 times in PBS. […]
as §2

rat astrocytes = test: BrdU incorporation (cell proliferation); format: cell-based; details: 100 μM, 72 hours
Method: as §3

F98 glioma cells [9] = test: Immunocytochemistry: peptide penetration and microtubule network; format: cell-based, rat; details: 10 μM, 6 h
Method: (§5) Cells were plated on coverslips and cultured in media containing biotinylated peptides (10 μM) for 6 hours. Following PBS washing, the cells were fixed for 10 min in 4% paraformaldehyde, and washed 3 times in PBS. They were then incubated for 10 min in a 0.5% triton X-100 permeabilization solution, washed 3 times in PBS before incubation in a blocking solution (5% BSA) for 15 min. Glioma cells and astrocytes were incubated overnight at 4° C. with mouse anti-B-tubulin antibody (Sigma) 1/200, and neurons with mouse anti-Bill-tubulin antibody 1/200. Tubulin and biotinylated peptides were localized using respectively Alexa 568 nm anti-mouse antibody and streptavidin Alexa 488 nm (Molecular Probes) 1/200 for 1 hour, followed by washing in PBS. The preparations were counterstained with 3 μM 4′6-diaminido-2-phenylindole (DAPI; Sigma) for 5 min, and washed twice with PBS. Coverslips were mounted with an antifading solution.
(§6) Observations were carried out with an Olympus confocal microscope (BX50) using Fluoview.3.1. Software or a Leica DMI6000 inverted microscope. Images were acquired with a CoolSNAP-HQ2 camera and analyzed with Metamorph 7.1.7.0. software. Cells that are positive for peptide staining and cells with destroyed microtubule network were counted. Experiments on each cell type were repeated at least three times, and minimums of 200 cells were analyzed for each experiment.

9L glioma cells [10] = test: as above; format: cell-based, rat; details: 10 μM, 6 h
Method: as §5, §6

glioma cells = test: Peptide uptake by glioma cells: temperature/energy dependence and sequence specificity; format: cell-based
Method: To evaluate the internalization of fluorescein-labeled NFL-TBS40-63 peptide by FACS, glioma cells or astrocytes were seeded in 35 mm dishes and cultured for 1 hour at 37° C. in media containing fluorescein-labeled NFL-TBS40-63 peptide at increasing concentrations or with vehicle (PBS). Cells were trypsinized, washed twice in cold PBS before incubation with trypsin (1 mg/mL) during 15 min at 37° C. To investigate a possible energy-dependant mechanism for the uptake of the peptide, cells were incubated at 4° C. with 20 μM fluorescein-labeled NFL-TBS2 peptide (after 15 min of 4° C. preincubation), or with 10 mM sodium azide in the presence of 6 mM 2-deoxy-D-glucose for 1 hour to deplete cellular ATP before addition of 20 μM fluorescence-labeled NFL-TBS2 peptide. Cells were then washed once, resuspended in 500 μl containing 50 μg/mL propidium iodide (Sigma, Saint-Quentin Fallavier, France), and analyzed with FACScalibur flow cytometer. Experiment on each cell type was repeated three times. 20,000 events per sample were analyzed in each experiment.

- cellular defects in normal brain ([1]; injected in normal brain): no major cellular defects
- clinical signs of distress (weight loss, hunched posture) ([1]; non tumor-bearing rats treated with the peptide): no clinical signs of distress
Compound: YSSYSAPVSSSLSVRRSYSSSSGS [NFL-TBS40-63]
- elimination of the peptide from normal brain ([1]; same procedure, days 16, 24 or 30): rapidly eliminated and was not detectable at these time points
- reduction of cell viability (MTS) (F98 glioma cells [2]): 60.8%±2.8
- reduction of cell viability (MTS) (9L glioma cells [3]): 30.0%±4.4

Compound: CC(=O)O[C@H]1C(=O)[C@@]2(C)[C@H]([C@H](OC(=O)c3ccccc3)[C@]3(O)C[C@H](OC(=O)[C@H](O)[C@@H](NC(=O)c4ccccc4)c4ccccc4)C(C)=C1C3(C)C)[C@]1(OC(C)=O)CO[C@@H]1C[C@@H]2O [taxol, paclitaxel]
- cell survival compared with NFL-TBS40-63 peptide (MTS) [4]: at the same level

Compound: NFL-SCR: similarly labeled scrambled peptide, control scrambled sequence of NFL-TBS40-63 (SLGSPSSSVRASYSSSRSYVYSSS; also: N-terminal label (biotin or carboxyfluorescein), not given here for this peptide)
- cells with altered microtubule network (rat primary astrocytes): didn't alter the microtubule network
- inhibition of BrdU incorporation (9L cells [5]): has no effect
- inhibition of BrdU incorporation (F98 cells [6]): has no effect
- apoptotic response (9L cells [7]): has no effect
- apoptotic response (primary astrocytes): has no effect
- apoptotic response (F98 cells [8]): has no effect
- cells with altered microtubule network (rat neurons): didn't alter the microtubule network
- effect on proliferation (BrdU incorporation) (rat astrocytes): has no effect
- total cells with altered microtubule network (spherical shape, aggregated tubulin) (F98 glioma cells [9]): didn't alter the microtubule network
- total cells with altered microtubule network (spherical shape, aggregated tubulin) (9L glioma cells [10]): didn't alter the microtubule network
- internalization into glioma cells (glioma cells): absence of internalization
